Among the data in the NIST ThermoML archive (doi:10.1016/j.fluid.2008.07.012) are Normal melting temperature values, retold here.

For this data set the following is noted: Crystal; DTA.

Structures are written as SMILES. Numbers after ± are expanded uncertainties.

As to `CC(C)CCC[C@@H](C)[C@H]1CC[C@H]2[C@@H]3CC=C4C[C@@H](OC(=O)c5ccccc5)CC[C@]4(C)[C@H]3CC[C@]12C` [3β-benzoyloxycholest-5-ene], the Normal melting temperature came out at 150 ± 1 °C.
In the case of `CCCC(=O)O[C@H]1CC[C@@]2(C)C(=CC[C@H]3[C@@H]4CC[C@H]([C@H](C)CCCC(C)C)[C@@]4(C)CC[C@@H]32)C1` [3β-butanoyloxycholest-5-ene], the Normal melting temperature was found to be 99 ± 1 °C.
